In patent EP0131315A2, “Nasal preparations comprising anticholinergic quaternary ammonium salts” (ISTITUTO DE ANGELI S.p.A., priority 1983, dated 1985):
Where “and” joins values, the source holds several entries; their conditions need not be identical. Equal values may be shown once. Read-outs that look alike come from different tables or passages of the source.

Tests used:
[1] = Urinary excretion (bioavailability) after intravenous, oral and nasal administration in the rat; drug in urine determined by muscarinic receptor binding assay; type: in vivo, male Sprague-Dawley rats; conditions: for amount of the compound found in the urine / dose excreted at 6 h / dose excreted at 24 h / dose excreted at 12 h: 2 mg/rat; for dose excreted at 6 h / dose excreted at 24 h / dose excreted at 12 h / bioavailability: urine, 2 mg; for dose excreted at 6 h: hours 0-6, mean of 10 rats; for dose excreted at 6 h / dose excreted at 24 h / dose excreted at 12 h: read-out: amount of the compound found in the urine; for dose excreted at 12 h: hours 6-12, mean of 10 rats
Description: As a representative drug of this class of compounds N-cyclopropylmethylscopolamine bromide was employed in the method and in the compositions according to the present invention. The bioavailability of this compound after administration by nasal and oral route has been examined and then compared by the following general method. The investigated drug was administered in equal doses by the nasal, oral and intravenous route. 6, 12 and 24 hours after administration the quantitative excretion into the urine for any of the routes of administration was studied. The total amount of the drug excreted during the investigated time intervals was expressed as percentage of the intravenously eliminated amount, considering the latter value as an equivalent for 100% bioavailability.
In detail the following studies have been carried out. For each experiment 10 male Sprague-Dawley rats, weighing 280+ 20g have been used. For the i.v. administration rats fasted for 18 hours were anaesthetized by intraperitoneal sodium pentobarbital solution 2 ml/kg corresponding to 60 mg/kg/rat. A 4% solution of the drug in buffered saline (pH=7.4) was injected into the femoral vein ([…] corresponding to 2 mg of the active ingredient). For the oral administration 18 hours fasted and conscious rats received an 0.2% solution of the drug in saline by means of a stomach tube (1 ml/rat corresponding to 2 mg of the active principle). For the nasal administration the investigated compounds, for example N-cyclopropylmethyl scopolamine bromide, was administered to 18 hours fasted and as above described anaesthetized rats at a dose of 2 mg/rat.
(§1) This dose corresponds either to 25µl of saline (4% solution) or 5 mg of a 20% gel introduced into both nasal cavities by means of micropipette. After the administration by any route the animals were transfered into metabolic cages and received 3 ml of water by stomach tube. The urine was collected 6,12 and 24 hours after administration and the excreted drug was determined with the following original method which is based on the binding affinity of the drugs to their pharmacological receptors. […] It follows from this that knowing the affinity of the drugs it is possible to assay the concentration of the drugs in biological fluids. For this a suitable in vitro receptor preparation and a radio ligand that can bind specifically to the receptor and can be displaced by the test compound is needed. In the present invention tritiated N-methyl- scopolamine (^3H-NMS) in a final concentration of 3.10^-10M that occupies 50% of the muscarinic receptors was employed. As in vitro receptor preparation we used a homogenate from rat cerebral cortex diluted 1:3000 in 20 mM HEPES, 100 mM NaCl and 10 mM MgCl2 (pH 7.4). After incubation of ^3H-NMS with the receptor preparation receptor bound ligand was separated from free ligand by centrifugation and the amountof the receptor bound ligand was measured as radioactivity (dpm) in the pellet.

[2] = system: muscarinic receptor of cerebral cortex; assay: Displacement of 3H-NMS from the muscarinic receptor (standard curve, Fig. 1); type: binding; conditions: rat cerebral cortex homogenate, 3H-NMS 3.10^-10M, increasing concentrations
Description: as §1, with “pellet. […]” for “pellet.”

C[N+]1(CC2CC2)C2CC(OC(=O)C(CO)c3ccccc3)CC1C1OC12 (centres unmarked) [N-cyclopropylmethylscopolamine bromide]
PERCENT URINARY EXCRETION BY OTHER ROUTES RELATIVE TO I.V. ADMINISTRATION ([1]; I.V., hours 0-6, rat (relative to total 0-24 h i.v. excretion)): 88.01%
PERCENT URINARY EXCRETION BY OTHER ROUTES RELATIVE TO I.V. ADMINISTRATION ([1]; I.V., hours 0-24, rat (reference = 100)): 100.00%
PERCENT URINARY EXCRETION BY OTHER ROUTES RELATIVE TO I.V. ADMINISTRATION ([1]; I.V., hours 6-12, rat): 8.45%
PERCENT URINARY EXCRETION BY OTHER ROUTES RELATIVE TO I.V. ADMINISTRATION ([1]; I.V., hours 12-24, rat): 3.54%
PERCENT URINARY EXCRETION BY OTHER ROUTES RELATIVE TO I.V. ADMINISTRATION ([1]; NASAL GEL, hours 0-6, rat): 9.01%
PERCENT URINARY EXCRETION BY OTHER ROUTES RELATIVE TO I.V. ADMINISTRATION ([1]; NASAL GEL, hours 0-24, rat): 22.85%
PERCENT URINARY EXCRETION BY OTHER ROUTES RELATIVE TO I.V. ADMINISTRATION ([1]; NASAL GEL, hours 6-12, rat): 8.90%
PERCENT URINARY EXCRETION BY OTHER ROUTES RELATIVE TO I.V. ADMINISTRATION ([1]; NASAL GEL, hours 12-24, rat): 4.94%
PERCENT URINARY EXCRETION BY OTHER ROUTES RELATIVE TO I.V. ADMINISTRATION ([1]; NASAL SOLUTION, hours 0-6, rat): 21.23%
PERCENT URINARY EXCRETION BY OTHER ROUTES RELATIVE TO I.V. ADMINISTRATION ([1]; NASAL SOLUTION, hours 0-24, rat): 23.00%
PERCENT URINARY EXCRETION BY OTHER ROUTES RELATIVE TO I.V. ADMINISTRATION ([1]; NASAL SOLUTION, hours 6-12, rat): 1.43%
PERCENT URINARY EXCRETION BY OTHER ROUTES RELATIVE TO I.V. ADMINISTRATION ([1]; NASAL SOLUTION, hours 12-24, rat): 0.34%
PERCENT URINARY EXCRETION BY OTHER ROUTES RELATIVE TO I.V. ADMINISTRATION ([1]; OS, hours 0-6, rat): 1.02%
PERCENT URINARY EXCRETION BY OTHER ROUTES RELATIVE TO I.V. ADMINISTRATION ([1]; OS, hours 0-24, rat): 1.40%
PERCENT URINARY EXCRETION BY OTHER ROUTES RELATIVE TO I.V. ADMINISTRATION ([1]; OS, hours 6-12, rat): 0.30%
PERCENT URINARY EXCRETION BY OTHER ROUTES RELATIVE TO I.V. ADMINISTRATION ([1]; OS, hours 12-24, rat): 0.08%
release profile from urinary excretion ([1]; nasal gel, excretion nearly constant 0-6 and 6-12 hours, rat): prolonged release
absorption after nasal administration as compared to the per oral form ([1]; nasal, both by solution and in the form of gel, rat): 16 times
amount of the compound found in the urine ([1]; nasal, gel, hours 0-24, individual rats, 1440 min): 5.26 percentage of the total administered dose and 11.19 percentage of the total administered dose and 5.28 percentage of the total administered dose and 5.19 percentage of the total administered dose and 8.40 percentage of the total administered dose and 6.94 percentage of the total administered dose
amount of the compound found in the urine ([1]; nasal, gel, hours 6-12, individual rats, 720 min): 2.00 percentage of the total administered dose and 4.58 percentage of the total administered dose and 1.63 percentage of the total administered dose and 2.17 percentage of the total administered dose and 3.24 percentage of the total administered dose and 2.90 percentage of the total administered dose and 1.53 percentage of the total administered dose
amount of the compound found in the urine ([1]; nasal, gel, hours 12-24, individual rats, 1440 min): 1.19 percentage of the total administered dose and 1.9 percentage of the total administered dose and 2.0 percentage of the total administered dose and 0.63 percentage of the total administered dose and 2.04 percentage of the total administered dose and 1.18 percentage of the total administered dose
amount of the compound found in the urine ([1]; nasal, solution, hours 0-6, individual rats, 360 min): 4.12 percentage of the total administered dose and 6.25 percentage of the total administered dose and 5.53 percentage of the total administered dose and 8.86 percentage of the total administered dose and 2.93 percentage of the total administered dose and 2.68 percentage of the total administered dose and 4.82 percentage of the total administered dose and 11.42 percentage of the total administered dose and 5.17 percentage of the total administered dose and 4.55 percentage of the total administered dose
amount of the compound found in the urine ([1]; nasal, solution, hours 0-24, individual rats, 1440 min): 4.52 percentage of the total administered dose and 6.59 percentage of the total administered dose and 5.75 percentage of the total administered dose and 9.23 percentage of the total administered dose and 3.17 percentage of the total administered dose and 3.11 percentage of the total administered dose and 5.55 percentage of the total administered dose and 11.88 percentage of the total administered dose and 6.12 percentage of the total administered dose and 5.07 percentage of the total administered dose
amount of the compound found in the urine ([1]; nasal, solution, hours 6-12, individual rats, 720 min): 0.33 percentage of the total administered dose and 0.25 percentage of the total administered dose and 0.13 percentage of the total administered dose and 0.23 percentage of the total administered dose and 0.19 percentage of the total administered dose and 0.39 percentage of the total administered dose and 0.65 percentage of the total administered dose and 0.28 percentage of the total administered dose and 0.86 percentage of the total administered dose and 0.44 percentage of the total administered dose
dose excreted at 6 h ([1]; rat, nasal, gel): 2.39%
dose excreted at 24 h ([1]; rat, nasal, gel, hours 0-24, mean of 10 rats): 6.06%
dose excreted at 12 h ([1]; rat, nasal, gel): 2.36%
dose excreted at 24 h ([1]; rat, nasal, gel, hours 12-24, mean of 10 rats): 1.31%
dose excreted at 6 h ([1]; rat, nasal, solution): 5.63%
dose excreted at 24 h ([1]; rat, nasal, solution, hours 0-24, mean of 10 rats): 6.1%
dose excreted at 12 h ([1]; rat, nasal, solution): 0.38%
dose excreted at 24 h ([1]; rat, nasal, solution, hours 12-24, mean of 10 rats): 0.09%
dose excreted at 6 h ([1]; rat, iv, intravenous): 23.2%
dose excreted at 24 h ([1]; rat, iv, intravenous, hours 0-24, individual rats): 31%
dose excreted at 24 h ([1]; rat, iv, intravenous, hours 0-24, mean of 10 rats): 26.5%
dose excreted at 12 h ([1]; rat, iv, intravenous): 2.24%
dose excreted at 24 h ([1]; rat, iv, intravenous, hours 12-24, mean of 10 rats): 0.94%
dose excreted at 6 h ([1]; rat, po, oral): 0.27%
dose excreted at 24 h ([1]; rat, po, oral, hours 0-24, mean of 10 rats): 0.37%
dose excreted at 12 h ([1]; rat, po, oral): 0.08%
dose excreted at 24 h ([1]; rat, po, oral, hours 12-24, mean of 10 rats): 0.02%
bioavailability ([1]; after oral administration, rat, read-out: bioavailability): 1.4%
bioavailability ([1]; nasal route, both galenic formulations, solution and gel, rat, read-out: absolute bioavailability): 23%
ability to displace 3H-NMS from the muscarinic receptor [2]: inhibit the specific binding between ^3H-NMS and receptor in a dose dependent manner
